The source of these data is PMC9769880, “Diverse Sensory Repertoire of Paralogous Chemoreceptors Tlp2, Tlp3, and Tlp4 in Campylobacter jejuni” (Microbiology Spectrum, 2022).

Read-outs that look alike come from different tables or passages of the source.

The target of assay [1] is Tlp3^LBD D196A (Campylobacter jejuni, UniProt Q0P864, D196A). The assay is described as follows: biochemical.
Assay [2] deals with WT Tlp3^LBD. Briefly: SPR competition assay (A-B-A inject). The assay is classed as binding, Campylobacter jejuni. The following applies: 15 seconds after injection-B; glucose 300 µM, fucose 300 μM, malic acid 200 μM. The method, then: . Competition A-B-A analyses determine the specificity of the potential ligand-binding site preferences of WT Tlp3^LBD. The bound protein is saturated with the first analyte (A), followed by the introduction of a second analyte (B); the assay is designed to show whether a cumulative response is observed after the second analyte (B) is added. A cumulative response indicates two independent binding sites, whereas the lack of a cumulative response indicates a single site where ligands compete for binding, i.e., when analyte A occupies a ligand binding site, analyte B cannot bind. […] All response data were normalized to a 100-Da molecular weight for each analyte, allowing direct comparison of the responses. Both actual RU values and theoretical values are recorded for comparison.
Figure S6. […] A) Injections are […]
at 300 μM for 60 seconds). Final responses units (RU) of injections are recorded (indicated by dashed vertical […]
81 at 15 s econds after injection- B and l fu cose […]
and fucose were compet ed was 4.4 RU ± 0.46. As this value sits be low 5 RU, it indicates direct competition for […]
Final respons es units (RU) of injections ar e re cor ded (indicated […]
As this value sits between
5.07- 13.5 RU, it indicates direct competition for the same site with glucos e replacing some of the bound malic acid during the 60 second injection- B.

Assay [3] deals with Tlp2 (Campylobacter jejuni, UniProt Q0PBZ3). The assay is described as follows: biochemical. The assay is classed as binding. Summed up:
(§1)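 Recombinant His-tagged periplasmic sensory domains (Tlp2 aa 33–286, Tlp4 aa 38–297) from E. coli BL21(DE3) were amine-coupled to a CM5 chip. Ligands (0.2–0.0125 mM in PBS pH 7.2) were run in single-cycle kinetics at 25 °C with 10-min dissociation. KD was derived at a report point 4 s after injection stop.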

In assay [4] the target is Tlp4 (Campylobacter jejuni, UniProt Q0PBP3). Briefly: biochemical. It counts as binding. The method in brief:
as §1

Assay [5] has as its system Δtlp3,4 mutant. It counts as cell-based.
The subject of assay [6] is Tlp2. The assay is classed as cell-based, C. jejuni 11168-O. The following applies: for chemotactic response via Tlp2: nutrient-depleted chemotaxis assay. Summed up:
(§2)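 Nutrient-depleted chemotaxis and modified hard agar plug assays compared C. jejuni 11168-O tlp2, tlp3 and tlp4 mutants with wild type toward each ligand, separating attractants from repellents. Differences expressed as log10 changes. Nonmotile flaAB and nonchemotactic cheY mutants and mucin served as controls.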

Assay [7] relates to Tlp4. It counts as cell-based, C. jejuni 11168-O. The following applies: nutrient-depleted chemotaxis assay. Summed up:
as §2

Assay [8] concerns Tlp3. It counts as cell-based, C. jejuni 11168-O. The following applies: for Tlp3 CR (chemoresponse): chemotaxis of mutant compared to WT strain. The method in brief:
as §2

The test system of assay [9] is Δtlp2,3 mutant. The assay is classed as cell-based. Particulars: P < 0.05.
Assay [10] concerns Tlp3. Set-up: method as in PMID 24391495. The following applies: cited from earlier work.
In assay [11] the test system is Δtlp2,4 mutant. It counts as cell-based. The following applies: P < 0.05.
The test system of assay [12] is Δtlp2,3,4 triple mutant. It counts as cell-based. Particulars: P < 0.05.
Setting [13] is: SPR KD, mean ± SD, NB = no binding, read-out: Tlp2 Affinity.
The mark [14] stands for this setting: SPR KD, mean ± SD, NB = no binding, read-out: Tlp4 Affinity.

Tlp2 (Campylobacter jejuni, UniProt Q0PBZ3), sequence (Q0PBZ3 entry or part of it): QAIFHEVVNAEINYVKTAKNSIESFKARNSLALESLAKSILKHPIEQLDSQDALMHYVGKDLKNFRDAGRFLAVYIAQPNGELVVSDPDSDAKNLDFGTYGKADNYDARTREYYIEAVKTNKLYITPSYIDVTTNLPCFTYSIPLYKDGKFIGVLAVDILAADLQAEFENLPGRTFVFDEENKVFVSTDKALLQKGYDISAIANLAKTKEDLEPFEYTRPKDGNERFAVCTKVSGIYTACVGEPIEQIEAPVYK
Tlp3^LBD D196A, sequence (Q0P864 41-290 D196A): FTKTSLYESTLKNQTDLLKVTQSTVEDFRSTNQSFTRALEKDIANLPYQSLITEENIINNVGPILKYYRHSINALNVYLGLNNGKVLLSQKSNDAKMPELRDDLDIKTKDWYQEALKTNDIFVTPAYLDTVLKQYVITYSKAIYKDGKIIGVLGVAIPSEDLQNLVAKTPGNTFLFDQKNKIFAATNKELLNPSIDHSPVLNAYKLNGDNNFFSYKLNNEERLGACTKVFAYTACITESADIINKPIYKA
Tlp4 (Campylobacter jejuni, UniProt Q0PBP3), sequence (Q0PBP3 entry or part of it): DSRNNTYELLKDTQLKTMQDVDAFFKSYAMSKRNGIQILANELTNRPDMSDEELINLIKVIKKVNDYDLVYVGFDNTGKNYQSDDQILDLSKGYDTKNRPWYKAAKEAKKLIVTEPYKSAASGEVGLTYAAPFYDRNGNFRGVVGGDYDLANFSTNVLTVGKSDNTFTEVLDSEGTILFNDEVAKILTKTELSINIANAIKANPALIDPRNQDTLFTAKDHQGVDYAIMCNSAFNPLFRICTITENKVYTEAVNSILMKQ

As to `C[C@H](O)[C@@H](O)[C@@H](O)[C@H](O)C=O` [Fucose], the Kd in [1] stood at 41.9 ± 13.2 µM; in assay [3] (setting [13]) it was 15.5 ± 0.9 µM; in assay [4] (setting [14]), 16.2 ± 2.2 µM. Further, in assay [2], the “SPR response of single analyte” value was 9.86 RU.
Turning to `NCCCC[C@H](N)C(=O)O` [Lysine], the “cell migration toward ligand, Δtlp3,4 mutant” value in [5] is “no change in migration”. Further, the “Tlp2 CR (chemoresponse)” value in [6] (chemotaxis of mutant compared to WT strain) is listed as “R”. Moreover, in assay [6] (compared to the WT strain, P < 0.05), the “increase in migration (Tlp2)” value turned out to be 1.4 log. Besides, the “chemotactic response via Tlp2” value in [6] is recorded as “repellent”. For the same molecule, the “chemotactic response via Tlp4” value in [7] was “attractant”. Besides, in [8], the “Tlp3 CR (chemoresponse)” value was “R”. Moreover, in assay [9], the “cell migration toward ligand increased, Δtlp2,3 mutant” value came out at 1.8 log. Besides, the Kd in assay [1] was determined as 16.1 ± 9.1 µM; in [3], 18.6 ± 1.5 µM; in [4] it was 19.7 ± 3.9 µM. For the same molecule, the “chemotactic response via Tlp3” value in [10] is given as “repellent”. For the same molecule, in assay [11], the “cell migration toward ligand decreased, Δtlp2,4 mutant” value is 1.1 log. Moreover, in assay [12], the “increase in cell migration, Δtlp2,3,4 triple mutant” value came out at 1.5 log.
`CC(=O)N[C@H]1[C@H]([C@H](O)[C@H](O)CO)OC(O)(C(=O)O)C[C@@H]1O` (stereo partly drawn) [Sialic acid]: the “chemotactic response via Tlp2” value in assay [6] is listed as “attractants”. Also, the “chemotactic response via Tlp4” value in [7] is “attractants”. Also, the “Tlp3 CR (chemoresponse)” value in assay [8] is on record as “R”. Moreover, the “chemotactic response via Tlp3” value in assay [8] (nutrient-depleted chemotaxis assay) is “repellents”. The Kd is 36.8 ± 3 µM in [1], 1.7 ± 0.2 µM in [3] (setting [13]) and 0.8 ± 0.1 µM in assay [4] (setting [14]).
